PubChem BioAssay (NCI)
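Protocol summary: plate cells (96-well), add compound at 5 concentrations, incubate 48 h, interpolate endpoints linearly. GI50: concentration for 50% inhibition of growth. At the TGI there is no net growth.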

Columns and labels:
Experiment in all cases: NCI anticancer screen, dose series, 48 h
IGROV1 ovarian = tested on: IGROV1 ovarian
LOX IMVI melanoma = tested on: LOX IMVI melanoma
MOLT-4 leukemia = tested on: MOLT-4 leukemia
NCI-H226 lung = tested on: NCI-H226 lung
NCI-H460 lung = tested on: NCI-H460 lung
NCI/ADR-RES ovarian = tested on: NCI/ADR-RES ovarian
OVCAR-5 ovarian = tested on: OVCAR-5 ovarian
SK-OV-3 ovarian = tested on: SK-OV-3 ovarian
T-47D breast = tested on: T-47D breast
UACC-257 melanoma = tested on: UACC-257 melanoma

Cc1ccc(NC2=CC(=O)C(=O)c3ccccc32)c(C)c1
GI50 (IGROV1 ovarian): 1.88 µM | TGI (IGROV1 ovarian): 6.68 µM | GI50 (LOX IMVI melanoma): 1.28 µM | TGI (LOX IMVI melanoma): 4.46 µM | GI50 (MOLT-4 leukemia): 2.88 µM | TGI (MOLT-4 leukemia): 16.6 µM | GI50 (NCI-H226 lung): 2.85 µM | TGI (NCI-H226 lung): 12.2 µM | GI50 (NCI-H460 lung): 2.57 µM | TGI (NCI-H460 lung): 7.68 µM | GI50 (NCI/ADR-RES ovarian): 2.92 µM | TGI (NCI/ADR-RES ovarian): 11.8 µM | GI50 (OVCAR-5 ovarian): 6.66 µM | TGI (OVCAR-5 ovarian): 21.6 µM | GI50 (SK-OV-3 ovarian): 13.8 µM | TGI (SK-OV-3 ovarian): 27.9 µM | GI50 (T-47D breast): 3.96 µM | TGI (T-47D breast): 25.2 µM | GI50 (UACC-257 melanoma): 1.96 µM | TGI (UACC-257 melanoma): 4.44 µM

CCOC(=O)n1c2ccccc2c(=O)n1CCO
TGI (IGROV1 ovarian): > 100 µM | TGI (MOLT-4 leukemia): > 100 µM | TGI (NCI-H226 lung): > 100 µM | TGI (NCI-H460 lung): > 100 µM | TGI (NCI/ADR-RES ovarian): > 100 µM | TGI (OVCAR-5 ovarian): > 100 µM | TGI (SK-OV-3 ovarian): > 100 µM | TGI (T-47D breast): > 100 µM | TGI (UACC-257 melanoma): > 100 µM

O=S(=O)(NCCCNc1nccc(-c2c(-c3cccc(F)c3)nc3occn23)n1)c1cccc2ccccc12
GI50 (IGROV1 ovarian): 3.33 µM | TGI (IGROV1 ovarian): > 100 µM | GI50 (LOX IMVI melanoma): 4.28 µM | TGI (LOX IMVI melanoma): > 100 µM | GI50 (MOLT-4 leukemia): 3.54 µM | TGI (MOLT-4 leukemia): > 100 µM | GI50 (NCI-H226 lung): 5.12 µM | TGI (NCI-H226 lung): > 100 µM | GI50 (NCI-H460 lung): 4.79 µM | TGI (NCI-H460 lung): > 100 µM | GI50 (NCI/ADR-RES ovarian): 5.52 µM | TGI (NCI/ADR-RES ovarian): > 100 µM | GI50 (OVCAR-5 ovarian): 9.6 µM | TGI (OVCAR-5 ovarian): > 100 µM | GI50 (SK-OV-3 ovarian): 3.76 µM | TGI (SK-OV-3 ovarian): > 100 µM | GI50 (T-47D breast): 2.59 µM | TGI (T-47D breast): > 100 µM | GI50 (UACC-257 melanoma): 21 µM | TGI (UACC-257 melanoma): > 100 µM

Cc1ccc(O)cc1Nc1ccnc2cc(-c3ccccn3)ccc12
GI50 (IGROV1 ovarian): 0.502 µM | TGI (IGROV1 ovarian): 2.13 µM | GI50 (LOX IMVI melanoma): 2.26 µM | TGI (LOX IMVI melanoma): 5.71 µM | GI50 (MOLT-4 leukemia): 4.18 µM | TGI (MOLT-4 leukemia): 10.7 µM | GI50 (NCI-H226 lung): 3.88 µM | TGI (NCI-H226 lung): 11.9 µM | GI50 (NCI-H460 lung): 3.65 µM | TGI (NCI-H460 lung): 7.4 µM | GI50 (NCI/ADR-RES ovarian): 4.49 µM | TGI (NCI/ADR-RES ovarian): 15.3 µM | GI50 (OVCAR-5 ovarian): 2.98 µM | TGI (OVCAR-5 ovarian): 9.21 µM | GI50 (SK-OV-3 ovarian): 1.98 µM | TGI (SK-OV-3 ovarian): 6.3 µM | GI50 (T-47D breast): 1.72 µM | TGI (T-47D breast): 9.86 µM | GI50 (UACC-257 melanoma): 3.09 µM | TGI (UACC-257 melanoma): 6.25 µM

N#Cc1cccc(C2C3=C(COC3=O)N(CCO)c3cc4c(cc32)CCC4)c1 (centres undefined)
GI50 (IGROV1 ovarian): 0.172 µM | TGI (IGROV1 ovarian): > 43.8 µM | GI50 (LOX IMVI melanoma): 0.292 µM | TGI (LOX IMVI melanoma): > 44.9 µM | GI50 (MOLT-4 leukemia): 0.203 µM | TGI (MOLT-4 leukemia): > 50 µM | GI50 (NCI-H226 lung): 1.67 µM | TGI (NCI-H226 lung): > 50 µM | GI50 (NCI-H460 lung): 0.16 µM | TGI (NCI-H460 lung): 5.19 µM | GI50 (NCI/ADR-RES ovarian): 0.15 µM | TGI (NCI/ADR-RES ovarian): > 50 µM | GI50 (OVCAR-5 ovarian): 0.237 µM | TGI (OVCAR-5 ovarian): > 50 µM | GI50 (SK-OV-3 ovarian): 0.215 µM | TGI (SK-OV-3 ovarian): > 30.5 µM | GI50 (T-47D breast): 0.271 µM | TGI (T-47D breast): > 50 µM | GI50 (UACC-257 melanoma): > 50 µM | TGI (UACC-257 melanoma): > 50 µM

CCc1c(C#N)c(SC(C(N)=O)c2ccccc2)nc(N2CCC(N)CC2)c1C#N (centres undefined)
GI50 (IGROV1 ovarian): 14 µM | TGI (IGROV1 ovarian): 27.9 µM | GI50 (LOX IMVI melanoma): 14.3 µM | TGI (LOX IMVI melanoma): 27.4 µM | GI50 (MOLT-4 leukemia): 11.5 µM | TGI (MOLT-4 leukemia): 31.2 µM | GI50 (NCI-H226 lung): 13 µM | TGI (NCI-H226 lung): 27.7 µM | GI50 (NCI-H460 lung): 16.1 µM | TGI (NCI-H460 lung): 30.7 µM | GI50 (NCI/ADR-RES ovarian): > 100 µM | TGI (NCI/ADR-RES ovarian): > 100 µM | GI50 (OVCAR-5 ovarian): 15.5 µM | TGI (OVCAR-5 ovarian): 31.7 µM | GI50 (SK-OV-3 ovarian): 15.7 µM | TGI (SK-OV-3 ovarian): 29.8 µM | GI50 (T-47D breast): 14.6 µM | TGI (T-47D breast): 31.8 µM | GI50 (UACC-257 melanoma): 14.3 µM | TGI (UACC-257 melanoma): 29.3 µM
